From article PMC3243694, “Integrated Dataset of Screening Hits against Multiple Neglected Disease Pathogens” (PLoS Neglected Tropical Diseases, 2011)
Values after ≈ are worked out from the molar mass of the structure shown.

How the values were obtained:
[1] = test system: Onchocerca (lienalis or ochengi) microfilariae; assay: Anti-Onchocerca microfilariae motility assay; assay type: cell-based, Onchocerca lienalis or O. ochengi
Procedure: (§1) The compound set was tested against the following parasites: intra-erythrocytic forms in human red blood cells of P. falciparum K1 strain (malaria), [16], [32], [33], [35], bloodstream forms of T. brucei Squib 427 strain (human African trypanosomiasis, HAT), [31], [32], [34], intracellular amastigotes of T. cruzi Tulahuen CL2, beta- galactosidase strain (Chagas' Disease), [32]–[35], intracellular amastigotes of L. infantum MHOM/MA(BE)/67 (leishmaniasis), [32]–[36], larval and/or adult worms of S. mansoni Puerto Rican strain (schistosomiasis), [31], [37], microfilariae of B. malayi (lymphatic filariasis), [30] and microfilariae of O. ochengi or O. lienalis (onchocerciasis), [30]. It should be noted that the human pathogen for onchocerciasis is Onchocerca volvulus, but due to lack of a suitable in vitro assay or animal models for this pathogen, O. ochengi and lienalis, which are both animal pathogens, are used in the primary and secondary assays, [30].
4240 compound s were screened against O. ochengi at the University of Buea in Cameroon, while a subset of […] compounds was successfully screened in UK by the Northwick Park Institute for Medical Research against O. lienalis, at a uniform molarity. […] After removing molecules that were toxic to mammalian cells (IC50<5 µg/ml), 292 molecules remained for further evaluation. […] From the latter sub-set, […] distinct chemical series and one singleton [structure # 35] were active against both microfilaria and adults. One series [structures # 2, 3] was deemed not interesting due to lack of selectivity against mammalian cells. The remaining series is being transferred to ANDI for further progression as part of a new collaboration.

[2] = test system: Schistosoma mansoni adult worms; assay: Anti-Schistosoma activity assay (adult worm motility); assay type: cell-based; details: S. mansoni adult worms; 12.5 µM (method: 10 µg/ml or 12.5 µM)
Procedure: as §1
A subset of 9478 of the 10,000 compound collection was tested against the Puerto Rican strain of S. mansoni. 6144 of these were tested in a primary larval assay followed by the ex-vivo adult secondary screen. The remainder was screened only in the adult assay. […] The 65 compounds were sorted by chemical attractiveness, potency against adult schistosomes in culture, selectivity against other parasites, and toxicity to mammalian cells in culture. Based on this analysis, 5 series encompassing 13 compounds were chosen for advancement through the African Network for Drug and Diagnostic Innovation (ANDI) and other PDPs. Representative structures [structures # 13, 27, 28] are shown (Table S1). These compounds are unburdened by obvious toxic moieties, have acceptable compliance with the Lipinski rules, are selectively active against schistosomes and are not overtly toxic to mammalian cells. It has unfortunately not been possible to titrate all of these hits in culture; of about 50% for which such data are available, none has an IC50<2 µg/ml (which is the initial potency criteria).

[3] = test system: Trypanosoma cruzi, Tulahuen CL2 strain; assay: Antitrypanosomal activity assay, T. cruzi in MRC-5 cells; assay type: cell-based; details: T. cruzi Tulahuen CL2 in MRC-5 cells, 7 days
Procedure: as §1
171 of the 744 actives passed the initial criterion of IC50<1 µg/ml for T. cruzi Tulahuen CL2, beta galactosidase strain maintained on MRC-5SV2 cells in MEM medium (MRC-5 cell/parasite inoculum: 4.10^3 cells/well+4.10^4 parasites/well), supplemented with […] L-glutamine, 16.5 mM NaHCO3 and 5% heat inactivated fetal calf serum. […] Of these, 109 were eliminated [structures #1–6] for poor selectivity versus mammalian cells (SI<50) and an additional 11 due to undesirable chemical attributes. The remaining 51 compounds were sorted into 10 series (45 compounds) and 6 singletons [structures # 21, 22]. Two of these series with excellent potency against T. cruzi, limited activity against other protozoa and SI values >50 (not shown), have been transferred to DNDi for further evaluation.

[4] = test system: MRC-5 cell line (diploid human embryonic lung fibroblast); assay: Cytotoxicity on MRC-5 cells; assay type: cell-based
Source text: [table] An important part of the screen is the evaluation of all compounds for cytotoxicity using the diploid human embryonic lung fibroblast MRC-5 cell line (Figure 2). Further evaluation of cytotoxicity also takes advantage of the assays for intracellular protozoan parasites, as in the case of L. infantum and T. cruzi, which include murine peritoneal macrophage host cells and MRC-5SV2 human lung fibroblast cells, respectively, in the culture system.

[5] = test system: Plasmodium falciparum K1 strain; assay: Anti-Plasmodium activity assay (Malstat); assay type: cell-based; details: P. falciparum K1, 72 h
Procedure: as §1

[6] = test system: Brugia malayi adult worms; assay: Anti-Brugia malayi adult worm motility assay; assay type: cell-based; details: B. malayi adult worms
Source text: In some cases, particularly for the antifilarial screens, a second whole organism test with adult stage parasites is included prior to animal evaluation. The decision to utilize microfilariae for primary screening was based on throughput and biological considerations. It is difficult to acquire enough adult filariae to enable screening more than 1000 compounds per year, a rate far lower than needed for timely evaluation of the available compounds. In light of this situation, and considering that we are targeting molecules that are active on both stages, microfilariae screening was adopted as a suitable filter to identify compounds with potential macrofilaricidal activity. As result of logistics issues attributed to lost shipments of some compounds, only 6160 molecules of the 10,000 compound set were tested, at a uniform molarity, against B. malayi, including 6063 against microfilariae and 756 against adult worms (these sets overlap). […] Greatest priority was given to compounds with activity against adult worms, as no macrofilaricide is available for use in control campaigns and the activity of ivermectin as a microfilaricidal agent is unlikely to be bettered in a new series. […] These were titrated to determine an IC50 value to support prioritization. Following cytotoxicity triage [structures # 1, 4, 6], eight compounds met the activity criterion for adult worms (i.e., 100% inhibition of adult worm motility), four of which were also active against microfilariae [structures # 14, 29, 30, 32]. […] Of these, the most interesting was TDR76699 [structure # 29]; this compound has very good activity against adult worms (IC50 = 0.1 µg/ml) and is also active against microfilariae (IC50 = 0.7 µg/ml). None of the other compounds tested against adult parasites had IC50 values ≤0.5 µg/ml, a threshold which would reduce concerns about specificity. However, a few series [structures # 31, 33, 34], appear interesting for future medicinal chemistry projects.

[7] = test system: Brugia malayi microfilariae; assay: Anti-Brugia malayi microfilariae motility assay; assay type: cell-based; details: B. malayi microfilariae
Procedure: as §1
As result of logistics issues attributed to lost shipments of some compounds, only 6160 molecules of the 10,000 compound set were tested, at a uniform molarity, against B. malayi, including 6063 against microfilariae and 756 against adult worms (these sets overlap). […] Greatest priority was given to compounds with activity against adult worms, as no macrofilaricide is available for use in control campaigns and the activity of ivermectin as a microfilaricidal agent is unlikely to be bettered in a new series. Of the test set, 53 compounds met the activity criterion for microfilariae (100% motility reduction) and an additional 58 inhibited adult worm motility ≥75% at 10 µM. These were titrated to determine an IC50 value to support prioritization. Following cytotoxicity triage [structures # 1, 4, 6], eight compounds met the activity criterion for adult worms (i.e., 100% inhibition of adult worm motility), four of which were also active against microfilariae [structures # 14, 29, 30, 32]. […] Of these, the most interesting was TDR76699 [structure # 29]; this compound has very good activity against adult worms (IC50 = 0.1 µg/ml) and is also active against microfilariae (IC50 = 0.7 µg/ml). None of the other compounds tested against adult parasites had IC50 values ≤0.5 µg/ml, a threshold which would reduce concerns about specificity. However, a few series [structures # 31, 33, 34], appear interesting for future medicinal chemistry projects.

[8] = test system: Trypanosoma brucei brucei Squib-427 strain; assay: Antitrypanosomal activity assay, T. brucei (resazurin); assay type: cell-based; details: T. brucei Squib 427 bloodstream forms, 72 h
Procedure: as §1

| SMILES | ONC/MF % Motility Reduction at 12.5µM [1] [%] | SCH % Motility Reduction at 12.5µM [2] [%] | CHA IC50 [3] [µg/mL] | CYT IC50 [4] [µg/mL] | MAL IC50 [5] [µg/mL] | LF/AW % Motility Reduction at 12.5µM [6] [%] | LF/MF % Motility Reduction at 12.5µM [7] [%] | HAT IC50 [8] [µg/mL] | IC50 adult worms ([6]; titration) [µg/mL] | IC50 microfilariae ([7]; titration) [µg/mL] |
| --- | --- | --- | --- | --- | --- | --- | --- | --- | --- | --- |
| O=C(COc1ccc(Cl)cc1Cl)Nc1nnc(C23CC4CC(CC(C4)C2)C3)s1 [TDR76660] | 0 | 0 | >13.15 | >13.15 | >13.15 | 0 | 100 | >13.15 | – | – |
| Cc1cccc(-n2nc3c(c2NC(=O)Nc2cccc(Cl)c2)CSC3)c1 [TDR76699] | 33 | 25 | 9.48 | >11.55 | >11.55 | 100 | 100 | >11.55 | 0.1 (≈ 0.26 µM) | 0.7 (≈ 1.82 µM) |
| CCOC(=O)c1ccc(NC(=O)CSc2nnc(NC(=O)C34CC5CC(CC(C5)C3)C4)s2)cc1 [TDR76705] | 33.3 | 0 | >15.02 | >15.02 | >15.02 | 100 | 100 | >15.02 | – | – |
| CCC(=O)c1c(NC(=O)c2ccc(C)cc2)sc2c1CCN(CC)C2 [TDR76871] | 0 | 0 | 0.48 | >11.79 | 1.87 | 22.3 | 33.3 | 0.32 | – | – |
| COC(=O)c1c(NC(=O)c2cc3ccccc3oc2=O)sc2c1CCN(Cc1ccccc1)C2 [TDR76873] | 40 | 0 | 0.64 | 8.92 | >15.33 | 100 | 100 | >15.33 | – | – |
| O=C(Nc1nc2c(s1)CSc1ccccc1-2)C1COc2ccccc2O1 (stereo not shown) [TDR77035] | 100 | 100 | 0.5 | 2.62 | 4.75 | 0 | 33 | 0.37 | – | – |
| O=C(COc1cccc2c1CCN(Cc1ccccc1F)C2=O)N1CCC(Cc2ccccc2)CC1 [TDR77144] | 0 | 0 | 0.56 | 4.56 | 4.54 | 100 | 100 | 0.47 | – | – |
| O=C(Nc1nc2c(F)cc(F)cc2s1)c1nc2ccccc2s1 [TDR77323] | – | 0 | >10.42 | >10.42 | >10.42 | 50 | 100 | – | – | – |
| COc1cccc2sc(Nc3nnc(-c4cccs4)o3)nc12 [TDR77585] | – | 0 | 0.31 | 1.83 | 1.25 | 50 | 100 | 0.35 | – | – |
| CN(C)CCN(C(=O)c1cccc(N2C(=O)CCC2=O)c1)c1nc2ccc(Br)cc2s1 [TDR79337] | 0 | 33 | 4.94 | >16.14 | 1.45 | 0 | – | 0.36 | – | – |
| O=C(Nc1nc2c(s1)CSc1ccccc1-2)C1CCCN1S(=O)(=O)c1cccs1 (stereo not shown) [TDR83016] | 100 | 100 | 0.5 | 1.88 | 3.71 | 0 | 100 | 0.45 | – | – |
| O=C(c1ccccc1)N1CCN(c2ccc(Nc3ccccn3)nn2)CC1 [TDR86082] | 0 | 0 | >10.8 | >10.8 | >10.8 | – | 0 | >10.8 | – | – |
| O=S(=O)(c1cccc(F)c1)N1CCN(c2ccc(Nc3cccnc3)nn2)CC1 [TDR86129] | 0 | 0 | >12.43 | 0.94 | 5.44 | – | 0 | >12.43 | – | – |
